SMILES strings stand for the structures.

Here are results for 33 compounds from US11426397B2, “Piperidinyl- and piperazinyl-substituted heteroaromatic carboxamides as modulators of GPR6” (TAKEDA PHARMACEUTICAL COMPANY LIMITED, priority 2017, dated 2022).

The target in this assay is T1, GPR6 receptor expressed in CHO-K1 cells (Homo sapiens, UniProt P46095).
T1 construct: expressed in transfected cells
T1 sequence (P46095 whole entry): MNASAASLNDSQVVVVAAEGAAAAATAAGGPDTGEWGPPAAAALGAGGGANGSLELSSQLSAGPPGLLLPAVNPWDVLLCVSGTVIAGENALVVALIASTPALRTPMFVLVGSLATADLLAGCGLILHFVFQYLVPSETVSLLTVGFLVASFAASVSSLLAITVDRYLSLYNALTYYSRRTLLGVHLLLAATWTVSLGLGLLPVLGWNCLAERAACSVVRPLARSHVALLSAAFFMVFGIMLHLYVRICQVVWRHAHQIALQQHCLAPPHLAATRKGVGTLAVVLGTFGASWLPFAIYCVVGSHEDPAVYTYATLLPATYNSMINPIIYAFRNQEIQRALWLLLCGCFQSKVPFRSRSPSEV
The assay can be described thus: In vitro inhibition of cAMP (EC50), cell-based HTRF cAMP assay. Particulars: inhibition of constitutive cAMP activity of GPR6 in CHO-K1 cells. Summed up: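 Tetracycline-inducible CHO-K1 line, GPR6 expression induced 20 h with 2 μg/mL doxycycline. Compounds incubated 45 min at 37 °C in Ringer's buffer (pH 7.4) with 0.5% fatty acid free BSA and 300 μM IBMX. Constitutive cAMP read by Lance HTRF; EC50 from four-parameter logistic fit.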
(In general: TR-FRET usually uses a lanthanide donor and a delayed reading to cut background.)
For the compound `COc1ncc(Cl)cc1C(=O)Nc1cc(C#N)ccc1N1CCC(Oc2ccc(F)cc2F)CC1` [Example 193, 5-chloro-N-(5-cyano-2-(4-(2,4-difluorophenoxy)piperidin-1-yl)phenyl)-2-methoxynicotinamide], the “pEC50, in vitro inhibition of cAMP” value is on record as 5.9. The result for `COc1cc(C(F)(F)F)ccc1C(=O)Nc1cc(C#N)ccc1N1CCC(Oc2ccc(F)cc2F)CC1` [Example 194, N-(5-cyano-2-(4-(2,4-difluorophenoxy)piperidin-1-yl)phenyl)-2-methoxy-4-(trifluoromethyl)benzamide] reads 6.3; that for `COc1c(C)cc(Cl)cc1C(=O)Nc1cc(C#N)ccc1N1CCC(Oc2ccc(F)cc2F)CC1` [Example 195], 5.9; that for `COc1nc2c(cc1C(=O)Nc1cc(C#N)ccc1N1CCC(Oc3ccc(F)cc3F)CC1)CCC2` [Example 196, N-(5-cyano-2-(4-(2,4-difluorophenoxy)piperidin-1-yl)phenyl)-2-methoxy-6,7-dihydro-5H-cyclopenta[b]pyridine-3-carboxamide], 6.7. On to `Cc1cccn2c(=O)c(C(=O)Nc3cc(C#N)ccc3N3CCC(Oc4ccc(F)cc4F)CC3)cnc12` [Example 197, N-(5-cyano-2-(4-(2,4-difluorophenoxy)piperidin-1-yl)phenyl)-9-methyl-4-oxo-4H-pyrido[1,2-a]pyrimidine-3-carboxamide], for which the “pEC50, in vitro inhibition of cAMP” value came out at 6.7. `Cc1sc2ncc(C(=O)Nc3cc(C#N)ccc3N3CCC(Oc4ccc(F)cc4F)CC3)c(=O)n2c1C` [Example 198, N-(5-cyano-2-(4-(2,4-difluorophenoxy)piperidin-1-yl)phenyl)-2,3-dimethyl-5-oxo-5H-thiazolo[3,2-a]pyrimidine-6-carboxamide]: the “pEC50, in vitro inhibition of cAMP” value is 6.4.

For `COCCCn1cccc(C(=O)Nc2cc(C#N)ccc2N2CCC(Oc3ccc(F)cc3F)CC2)c1=O` [Example 199], the “pEC50, in vitro inhibition of cAMP” value stood at 5.9.

Regarding `N#Cc1ccc(N2CCC(Oc3ccc(F)cc3F)CC2)c(NC(=O)c2cnc3sccn3c2=O)c1` [Example 200, N-(5-cyano-2-(4-(2,4-difluorophenoxy)piperidin-1-yl)phenyl)-5-oxo-5H-thiazolo[3,2-a]pyrimidine-6-carboxamide], the “pEC50, in vitro inhibition of cAMP” value came out at 6.9. Regarding `Cc1ccc2ncc(C(=O)Nc3cc(C#N)ccc3N3CCC(Oc4ccc(F)cc4F)CC3)c(=O)n2c1` [Example 201], the “pEC50, in vitro inhibition of cAMP” value stood at 6.8. As for `CCn1c(C)cc(C)c(C(=O)Nc2cc(C#N)ccc2N2CCC(Oc3ccc(F)cc3F)CC2)c1=O` [Example 202], the “pEC50, in vitro inhibition of cAMP” value is 6.3.

Consider `N#Cc1ccc(N2CCC(Oc3ccc(F)cc3F)CC2)c(NC(=O)c2cccn(Cc3ccccn3)c2=O)c1` [Example 203, N-(5-cyano-2-(4-(2,4-difluorophenoxy)piperidin-1-yl)phenyl)-2-oxo-1-(pyridin-2-ylmethyl)-1,2-dihydropyridine-3-carboxamide], for which the “pEC50, in vitro inhibition of cAMP” value stood at 5.6.

In the case of `CN(C)C(=O)Cn1cccc(C(=O)Nc2cc(C#N)ccc2N2CCC(Oc3ccc(F)cc3F)CC2)c1=O` [Example 204, N-(5-cyano-2-(4-(2,4-difluorophenoxy)piperidin-1-yl)phenyl)-1-(2-(dimethylamino)-2-oxoethyl)-2-oxo-1,2-dihydropyridine-3-carboxamide], the “pEC50, in vitro inhibition of cAMP” value is reported as 4.9.

Consider `COc1ccc(OC)c(C(=O)Nc2cc(C#N)ccc2N2CCC(Oc3ccc(F)cc3F)CC2)c1` [Example 205, N-(5-cyano-2-(4-(2,4-difluorophenoxy)piperidin-1-yl)phenyl)-2,5-dimethoxybenzamide], for which the “pEC50, in vitro inhibition of cAMP” value came to 6.0. `COc1c(Cl)ccc(Cl)c1C(=O)Nc1cc(C#N)ccc1N1CCC(Oc2ccc(F)cc2F)CC1` [Example 206, 3,6-dichloro-N-(5-cyano-2-(4-(2,4-difluorophenoxy)piperidin-1-yl)phenyl)-2-methoxybenzamide]: the “pEC50, in vitro inhibition of cAMP” value was found to be 5.1. Regarding `COc1c(F)cc(F)cc1C(=O)Nc1cc(C#N)ccc1N1CCC(Oc2ccc(F)cc2F)CC1` [Example 207, N-(5-cyano-2-(4-(2,4-difluorophenoxy)piperidin-1-yl)phenyl)-3,5-difluoro-2-methoxybenzamide], the “pEC50, in vitro inhibition of cAMP” value is 6.8. With `COc1ccc(C(F)(F)F)cc1C(=O)Nc1cc(C#N)ccc1N1CCC(Oc2ccc(F)cc2F)CC1` [Example 208, N-(5-cyano-2-(4-(2,4-difluorophenoxy)piperidin-1-yl)phenyl)-2-methoxy-5-(trifluoromethyl)benzamide], the “pEC50, in vitro inhibition of cAMP” value worked out at 6.9. In the case of `COc1ccc(C(C)(C)C)cc1C(=O)Nc1cc(C#N)ccc1N1CCC(Oc2ccc(F)cc2F)CC1` [Example 209, 5-(tert-butyl)-N-(5-cyano-2-(4-(2,4-difluorophenoxy)piperidin-1-yl)phenyl)-2-methoxybenzamide], the “pEC50, in vitro inhibition of cAMP” value amounted to 6.1.

On to `COc1ccc(F)cc1C(=O)Nc1cc(C#N)ccc1N1CCC(Oc2ccc(F)cc2F)CC1` [Example 210, N-(5-cyano-2-(4-(2,4-difluorophenoxy)piperidin-1-yl)phenyl)-5-fluoro-2-methoxybenzamide], for which the “pEC50, in vitro inhibition of cAMP” value came to 7.3.

Turning to `COc1ccc(Cl)cc1C(=O)Nc1cc(C#N)ccc1N1CCC(Oc2ccc(F)cc2F)CC1` [Example 211, 5-chloro-N-(5-cyano-2-(4-(2,4-difluorophenoxy)piperidin-1-yl)phenyl)-2-methoxybenzamide], the “pEC50, in vitro inhibition of cAMP” value was found to be 6.7.

Take `COc1ccc(Cl)c(OC)c1C(=O)Nc1cc(C#N)ccc1N1CCC(Oc2ccc(F)cc2F)CC1` [Example 212, 3-chloro-N-(5-cyano-2-(4-(2,4-difluorophenoxy)piperidin-1-yl)phenyl)-2,6-dimethoxybenzamide]: the “pEC50, in vitro inhibition of cAMP” value is on record as below 4.5.

With `COc1nc(C(F)(F)F)ccc1C(=O)Nc1cc(C#N)ccc1N1CCC(Oc2ccc(F)cc2F)CC1` [Example 213], the “pEC50, in vitro inhibition of cAMP” value stood at 6.8. The result for `COc1c(C)ccc(C)c1C(=O)Nc1cc(C#N)ccc1N1CCC(Oc2ccc(F)cc2F)CC1` [Example 214, N-(5-cyano-2-(4-(2,4-difluorophenoxy)piperidin-1-yl)phenyl)-2-methoxy-3,6-dimethylbenzamide] reads 5.5; that for `COc1ccc(N2CCOCC2)cc1C(=O)Nc1cc(C#N)ccc1N1CCC(Oc2ccc(F)cc2F)CC1` [Example 215, N-(5-cyano-2-(4-(2,4-difluorophenoxy)piperidin-1-yl)phenyl)-2-methoxy-5-morpholinobenzamide], 5.5; that for `COc1cc(C(C)(C)C)ccc1C(=O)Nc1cc(C#N)ccc1N1CCC(Oc2ccc(F)cc2F)CC1` [Example 216, 4-(tert-butyl)-N-(5-cyano-2-(4-(2,4-difluorophenoxy)piperidin-1-yl)phenyl)-2-methoxybenzamide], 6.4. `Cc1cn2c(=O)c(C(=O)Nc3cc(C#N)ccc3N3CCC(Oc4ccc(F)cc4F)CC3)cnc2s1` [Example 217, N-(5-cyano-2-(4-(2,4-difluorophenoxy)piperidin-1-yl)phenyl)-2-methyl-5-oxo-5H-thiazolo[3,2-a]pyrimidine-6-carboxamide]: the “pEC50, in vitro inhibition of cAMP” value is recorded as 6.7. As to `Cc1csc2ncc(C(=O)Nc3cc(C#N)ccc3N3CCC(Oc4ccc(F)cc4F)CC3)c(=O)n12` [Example 218, N-(5-cyano-2-(4-(2,4-difluorophenoxy)piperidin-1-yl)phenyl)-3-methyl-5-oxo-5H-thiazolo[3,2-a]pyrimidine-6-carboxamide], the “pEC50, in vitro inhibition of cAMP” value is given as 6.8.

With `COc1cn(-c2ccccc2)nc1C(=O)Nc1cc(C#N)ccc1N1CCC(Oc2ccc(F)cc2F)CC1` [Example 219, N-(5-cyano-2-(4-(2,4-difluorophenoxy)piperidin-1-yl)phenyl)-4-methoxy-1-phenyl-1H-pyrazole-3-carboxamide], the “pEC50, in vitro inhibition of cAMP” value was found to be 6.3. For the compound `COc1c(C(=O)Nc2cc(C#N)ccc2N2CCC(Oc3ccc(F)cc3F)CC2)nnn1Cc1ccccc1` [Example 220, 1-benzyl-N-(5-cyano-2-(4-(2,4-difluorophenoxy)piperidin-1-yl)phenyl)-5-methoxy-1H-1,2,3-triazole-4-carboxamide], the “pEC50, in vitro inhibition of cAMP” value is 5.8.

As to `COc1c(C(=O)Nc2cc(C#N)ccc2N2CCC(Oc3ccc(F)cc3F)CC2)nnn1Cc1ccccc1Cl` [Example 221, 1-(2-chlorobenzyl)-N-(5-cyano-2-(4-(2,4-difluorophenoxy)piperidin-1-yl)phenyl)-5-methoxy-1H-1,2,3-triazole-4-carboxamide], the “pEC50, in vitro inhibition of cAMP” value is listed as below 4.5. Turning to `COc1c(Cl)cccc1C(=O)Nc1cc(C#N)ccc1N1CCC(Oc2ccc(F)cc2F)CC1` [Example 222, 3-chloro-N-(5-cyano-2-(4-(2,4-difluorophenoxy)piperidin-1-yl)phenyl)-2-methoxybenzamide], the “pEC50, in vitro inhibition of cAMP” value is 6.7. Turning to `COc1nccc(Cl)c1C(=O)Nc1cc(C#N)ccc1N1CCC(Oc2ccc(F)cc2F)CC1` [Example 223, 4-chloro-N-(5-cyano-2-(4-(2,4-difluorophenoxy)piperidin-1-yl)phenyl)-2-methoxynicotinamide], the “pEC50, in vitro inhibition of cAMP” value came to 5.6. Take `COc1ncc(F)cc1C(=O)Nc1cc(C#N)ccc1N1CCC(Oc2ccc(F)cc2F)CC1` [Example 224, N-(5-cyano-2-(4-(2,4-difluorophenoxy)piperidin-1-yl)phenyl)-5-fluoro-2-methoxynicotinamide]: the “pEC50, in vitro inhibition of cAMP” value is 7.3. On to `COc1ccc(Br)cc1C(=O)Nc1cc(C#N)ccc1N1CCC(Oc2ccc(F)cc2F)CC1` [Example 225, 5-bromo-N-(5-cyano-2-(4-(2,4-difluorophenoxy)piperidin-1-yl)phenyl)-2-methoxybenzamide], for which the “pEC50, in vitro inhibition of cAMP” value is 6.4.
